{"source": "patent US20230271966A1", "about": "“PRPK INHIBITORS” (Dana-Farber Cancer Institute, Inc., priority 2020, published 2023)", "key": {"Cereblon (CRBN)": {"molecular_target": "Cereblon (CRBN) (Homo sapiens (Human), UniProt Q96SW2)", "sequence (Q96SW2 whole entry, species assumed)": "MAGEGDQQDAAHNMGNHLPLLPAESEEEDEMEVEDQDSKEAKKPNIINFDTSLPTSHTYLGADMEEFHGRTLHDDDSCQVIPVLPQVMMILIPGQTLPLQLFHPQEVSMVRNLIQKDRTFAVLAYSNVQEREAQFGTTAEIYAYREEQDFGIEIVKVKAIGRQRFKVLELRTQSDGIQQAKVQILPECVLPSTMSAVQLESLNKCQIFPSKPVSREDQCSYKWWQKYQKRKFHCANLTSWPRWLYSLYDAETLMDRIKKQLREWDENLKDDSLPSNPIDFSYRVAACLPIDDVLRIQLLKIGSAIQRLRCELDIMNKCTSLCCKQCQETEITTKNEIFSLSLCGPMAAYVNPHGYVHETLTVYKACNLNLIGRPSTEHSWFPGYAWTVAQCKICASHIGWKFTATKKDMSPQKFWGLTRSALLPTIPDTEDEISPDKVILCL", "assay": "Isothermal titration calorimetry (ITC), Cereblon (CRBN)", "format": "binding", "conditions": "for Kd: 20 μM protein titrated with 200 μM test compound, 20 mM HEPES pH 7.5, 150 mM NaCl, 0.5 mM TCEP, 2% DMSO, 25° C, single site model", "procedure": "(§1) All calorimetric experiments were carried out using an Affinity ITC from TA Instruments (New Castle, Del.) equipped with an auto sampler in a buffer containing 20 mM HEPES, pH 7.5, 150 mM NaCl, 0.5 mM TCEP, and 2% DMSO at 25° C. 20 μM protein solution containing PRPK or Cereblon (CRBN) in the calorimetric cell was titrated with 200 μM of a test compound solution using 2 μL injection in 200 seconds intervals using a stirring speed at 125 rpm. Resulting isotherm was fitted with a single site model to yield thermodynamic parameters of ΔH, ΔS, stoichiometry, and Kd using NanoAnalyze software (TA instruments)."}, "PRPK": {"molecular_target": "PRPK (Homo sapiens (Human), UniProt Q96S44)", "sequence (Q96S44 whole entry)": "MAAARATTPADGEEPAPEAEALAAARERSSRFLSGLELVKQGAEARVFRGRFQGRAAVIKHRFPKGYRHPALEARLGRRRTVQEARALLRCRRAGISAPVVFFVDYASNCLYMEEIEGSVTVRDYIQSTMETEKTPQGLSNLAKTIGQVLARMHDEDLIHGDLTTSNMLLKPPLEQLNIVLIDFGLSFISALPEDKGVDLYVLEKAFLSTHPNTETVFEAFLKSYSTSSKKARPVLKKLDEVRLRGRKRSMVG", "assay": "Isothermal titration calorimetry (ITC), PRPK", "format": "binding", "conditions": "for Kd: 20 μM protein titrated with 200 μM test compound, 20 mM HEPES pH 7.5, 150 mM NaCl, 0.5 mM TCEP, 2% DMSO, 25° C, single site model; for PRPK binding Kd compared with pomalidomide: ITC, comparison in words with control Pomalidomide", "procedure": "as §1"}}}
{"smiles": "O=C1CCC(N2C(=O)c3ccc(-c4cn[nH]c4)c(O)c3C2=O)C(=O)N1", "note": "(centres unmarked) [Compound 13, 2-(2,6-dioxopiperidin-3-yl)-4-hydroxy-5-(1H-pyrazol-4-yl)isoindoline-1,3-dione]", "values": [{"measurement": "Kd", "setting": "Cereblon (CRBN)", "result": 0.54, "unit": "µM"}, {"measurement": "CRBN inhibition (conclusion in words from ITC)", "setting": "Cereblon (CRBN)", "result": "not CRBN inhibitors"}, {"measurement": "Kd", "setting": "PRPK", "result": "1.9 ± 1.7", "unit": "µM"}, {"measurement": "PRPK binding Kd compared with pomalidomide", "setting": "PRPK", "result": "lower than Pomalidomide"}]}
{"smiles": "C[C@@]1(N2C(=O)c3ccc(-c4cn[nH]c4)c(O)c3C2=O)CCC(=O)NC1=O", "note": "[Compound 22, (R)-4-hydroxy-2-(3-methyl-2,6-dioxopiperidin-3-yl)-5-(1H-pyrazol-4-yl)isoindoline-1,3-dione]", "values": [{"measurement": "Kd", "setting": "Cereblon (CRBN)", "result": "> 1000", "unit": "µM"}, {"measurement": "Kd", "setting": "PRPK", "result": "> 1000", "unit": "µM"}]}
{"smiles": "C[C@@]1(N2C(=O)c3ccc(-c4n[nH]c(=S)o4)cc3C2=O)CCC(=O)NC1=O", "note": "[Compound 30, (R)-2-(3-methyl-2,6-dioxopiperidin-3-yl)-5-(5-thioxo-4,5-dihydro-1,3,4-oxadiazol-2-yl)isoindoline-1,3-dione]", "values": [{"measurement": "Kd", "setting": "Cereblon (CRBN)", "result": "> 1000", "unit": "µM"}, {"measurement": "CRBN inhibition (conclusion in words from ITC)", "setting": "Cereblon (CRBN)", "result": "not CRBN inhibitors"}, {"measurement": "Kd", "setting": "PRPK", "result": "0.36 ± 0.07", "unit": "µM"}, {"measurement": "PRPK binding Kd compared with pomalidomide", "setting": "PRPK", "result": "lower than Pomalidomide"}]}
{"smiles": "C[C@@]1(N2C(=O)c3ccc(C(=O)O)cc3C2=O)CCC(=O)NC1=O", "note": "[Compound 12, (R)-2-(3-methyl-2,6-dioxopiperidin-3-yl)-1,3-dioxoisoindoline-5-carboxylic acid]", "values": [{"measurement": "Kd", "setting": "Cereblon (CRBN)", "result": "> 1000", "unit": "µM"}, {"measurement": "CRBN inhibition (conclusion in words from ITC)", "setting": "Cereblon (CRBN)", "result": "not CRBN inhibitors"}, {"measurement": "Kd", "setting": "PRPK", "result": "0.28 ± 0.08", "unit": "µM"}, {"measurement": "PRPK binding Kd compared with pomalidomide", "setting": "PRPK", "result": "lower than Pomalidomide"}]}
